“And” between values parts separate entries of the source, which are not always exact repeats. Equal entries are not always repeated. Inconclusive results and toxic doses are left out. No stated cut-off is given here; in the data, active means T/C of 150% or more; inactive means T/C below 125%.
Tested on: L1210 leukemia ip in BDF1 mice, survival T/C
Test: NCI In Vivo Anticancer Drug Screen. Data for tumor model L1210 Leukemia (intraperitoneal) in B6D2F1 (BDF1) mice
Conditions: endpoint: mean survival time, higher = longer survival
Outline: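 Each compound was tested against a transplantable tumor grown in mice. The endpoint was survival, with treated animals benchmarked against vehicle controls as a simple ratio.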

[1] = dose: 100.0 mg/kg/injection, schedule: Q04DX003 (ip), vehicle: saline with Tween-80
[2] = dose: 200.0 mg/kg/injection, schedule: Q04DX003 (ip), vehicle: saline with Tween-80
[3] = dose: 400.0 mg/kg/injection, schedule: Q04DX003 (ip), vehicle: saline with Tween-80
[4] = dose: 100.0 mg/kg/injection, schedule: Q04DX002 (ip), vehicle: Klucel (hydroxypropylcellulose) (HPC)
[5] = dose: 200.0 mg/kg/injection, schedule: Q04DX002 (ip), vehicle: Klucel (hydroxypropylcellulose) (HPC)
[6] = dose: 400.0 mg/kg/injection, schedule: Q04DX002 (ip), vehicle: Klucel (hydroxypropylcellulose) (HPC)
[7] = dose: 100.0 mg/kg/injection, schedule: Q01DX001 (ip), vehicle: carboxymethylcellulose (CMC)
[8] = dose: 200.0 mg/kg/injection, schedule: Q01DX001 (ip), vehicle: carboxymethylcellulose (CMC)
[9] = dose: 400.0 mg/kg/injection, schedule: Q01DX001 (ip), vehicle: carboxymethylcellulose (CMC)
[10] = dose: 100.0 mg/kg/injection, schedule: Q01DX001 (ip), vehicle: saline with Tween-80
[11] = dose: 100.0 mg/kg/injection, schedule: Q04DX003 (ip), vehicle: saline
[12] = dose: 200.0 mg/kg/injection, schedule: Q04DX003 (ip), vehicle: saline
[13] = dose: 400.0 mg/kg/injection, schedule: Q04DX003 (ip), vehicle: saline

Measured: T/C

CC(=O)N1C=C(Br)c2ccccc2C1C1c2ccccc2C(Br)=CN1C(C)=O (stereo unspecified)
inactive: [1] 91 % of control | [2] 87 % of control | [3] 91 % of control

CCN(CCO)C(=O)C1C(c2ccccc2)C1c1ccccc1 (stereo unspecified)
inactive: [4] 97 % of control | [5] 100 % of control | [6] 90 % of control

Cc1cc([N+](=O)[O-])ccc1NC(=O)Nc1cccc(C(F)(F)F)c1
inactive: dose: 100.0 mg/kg/injection, schedule: Q01DX009 (ip), vehicle: Klucel (hydroxypropylcellulose) (HPC) 88 % of control | dose: 200.0 mg/kg/injection, schedule: Q01DX009 (ip), vehicle: Klucel (hydroxypropylcellulose) (HPC) 92 % of control | dose: 400.0 mg/kg/injection, schedule: Q01DX009 (ip), vehicle: Klucel (hydroxypropylcellulose) (HPC) 90 % of control

O=S(=O)(NO)c1ccccc1
inactive: dose: 100.0 mg/kg/injection, schedule: Q01DX009 (ip), vehicle: saline with Tween-80 98 % of control | [1] 98 % of control | dose: 200.0 mg/kg/injection, schedule: Q01DX009 (ip), vehicle: saline with Tween-80 96 % of control | [2] 100 % of control | dose: 400.0 mg/kg/injection, schedule: Q01DX009 (ip), vehicle: saline with Tween-80 98 % of control | [3] 98 % of control

Nc1ccc(N)c2c1C(=O)c1cccc([N+](=O)[O-])c1C2=O
inactive: dose: 50.0 mg/kg/injection, schedule: Q01DX001 (ip), vehicle: carboxymethylcellulose (CMC) 101 % of control | [7] 97 % of control | [8] 95 % of control | [9] 95 % of control

CCOC1(OCC)C(C)C(c2ccccc2)C(c2ccccc2)C1C (stereo unspecified)
inactive: dose: 75.0 mg/kg/injection, schedule: Q01DX001 (ip), vehicle: saline 95 % of control | dose: 150.0 mg/kg/injection, schedule: Q01DX001 (ip), vehicle: saline 90 % of control | dose: 300.0 mg/kg/injection, schedule: Q01DX001 (ip), vehicle: saline 89 % of control

O=C(CC(C(=O)Nc1ccccc1)C(O)(c1ccccc1)c1ccccc1)Nc1ccccc1 (stereo unspecified)
inactive: [7] 95 % of control | [8] 91 % of control | [9] 95 % of control

CCCCNC(=O)Nc1ccc(Cl)cc1
inactive: dose: 25.0 mg/kg/injection, schedule: Q01DX001 (ip), vehicle: saline with Tween-80 100 % of control | dose: 50.0 mg/kg/injection, schedule: Q01DX001 (ip), vehicle: saline with Tween-80 88 % of control | [10] 88 % of control | [4] 96 % of control | [5] 100 % of control | [6] 104 % of control

[Cl][Al]([Cl])[Cl]
inactive: dose: 6.25 mg/kg/injection, schedule: Q01DX009 (ip), vehicle: saline 102 % of control | dose: 12.5 mg/kg/injection, schedule: Q01DX009 (ip), vehicle: saline 93 % of control | dose: 50.0 mg/kg/injection, schedule: Q04DX003 (ip), vehicle: saline 91 % of control | dose: 100.0 mg/kg/injection, schedule: Q01DX001 (ip), vehicle: saline 97 % of control and 89 % of control and 96 % of control | dose: 100.0 mg/kg/injection, schedule: Q01DX009 (ip), vehicle: saline 87 % of control | [11] 100 % of control and 87 % of control | dose: 200.0 mg/kg/injection, schedule: Q01DX001 (ip), vehicle: saline 98 % of control and 94 % of control | dose: 200.0 mg/kg/injection, schedule: Q01DX009 (ip), vehicle: saline 96 % of control | [12] 96 % of control and 101 % of control and 90 % of control | dose: 400.0 mg/kg/injection, schedule: Q01DX001 (ip), vehicle: saline 100 % of control and 114 % of control | dose: 400.0 mg/kg/injection, schedule: Q01DX009 (ip), vehicle: saline 91 % of control

CC(OC(=O)c1ccccc1O)c1ccccc1 (stereo unspecified)
inactive: [11] 96 % of control | [12] 96 % of control | [13] 100 % of control

C=CCc1ccc(OC(=O)Nc2cccc(Cl)c2)c(OC)c1
inactive: dose: 100.0 mg/kg/injection, schedule: Q01DX009 (ip), vehicle: carboxymethylcellulose (CMC) 98 % of control and 102 % of control | [4] 95 % of control | dose: 100.0 mg/kg/injection, schedule: Q04DX002 (ip), vehicle: carboxymethylcellulose (CMC) 102 % of control | dose: 100.0 mg/kg/injection, schedule: Q04DX003 (ip), vehicle: carboxymethylcellulose (CMC) 101 % of control | dose: 200.0 mg/kg/injection, schedule: Q01DX009 (ip), vehicle: carboxymethylcellulose (CMC) 100 % of control and 92 % of control | [5] 92 % of control | dose: 200.0 mg/kg/injection, schedule: Q04DX002 (ip), vehicle: carboxymethylcellulose (CMC) 112 % of control | dose: 200.0 mg/kg/injection, schedule: Q04DX003 (ip), vehicle: carboxymethylcellulose (CMC) 95 % of control | dose: 400.0 mg/kg/injection, schedule: Q01DX009 (ip), vehicle: carboxymethylcellulose (CMC) 95 % of control and 98 % of control | [6] 95 % of control | dose: 400.0 mg/kg/injection, schedule: Q04DX002 (ip), vehicle: carboxymethylcellulose (CMC) 105 % of control | dose: 400.0 mg/kg/injection, schedule: Q04DX003 (ip), vehicle: carboxymethylcellulose (CMC) 100 % of control

COC(=O)/C=C(\C)Nc1ccc(NC(C)=O)cc1
inactive: dose: 25.0 mg/kg/injection, schedule: Q01DX009 (ip), vehicle: acetone 101 % of control | dose: 50.0 mg/kg/injection, schedule: Q01DX009 (ip), vehicle: acetone 101 % of control | dose: 100.0 mg/kg/injection, schedule: Q01DX009 (ip), vehicle: acetone 94 % of control | dose: 100.0 mg/kg/injection, schedule: Q04DX003 (ip), vehicle: acetone 94 % of control | dose: 200.0 mg/kg/injection, schedule: Q04DX003 (ip), vehicle: acetone 96 % of control

O=C1C=C(c2ccccc2)C(=O)O1
inactive: [4] 95 % of control | [5] 92 % of control | [6] 90 % of control

CC(Br)C1(c2cccc([N+](=O)[O-])c2)OCCO1 (stereo unspecified)
inactive: [11] 105 % of control | [12] 100 % of control | [13] 108 % of control

CC(C)CC(N)C(N)=O (stereo unspecified)
inactive: dose: 12.5 mg/kg/injection, schedule: Q04DX002 (ip), vehicle: saline 107 % of control | dose: 25.0 mg/kg/injection, schedule: Q04DX002 (ip), vehicle: saline 100 % of control | dose: 50.0 mg/kg/injection, schedule: Q04DX002 (ip), vehicle: saline 107 % of control

C=C(C)c1c2c(Sc3ccc(C(C)(C)C)cc3)cccc2cc2cccc(Sc3ccc(C(C)(C)C)cc3)c12
inactive: [1] 98 % of control | [2] 93 % of control | [3] 91 % of control

Cc1cc(C(=O)CCC(=O)O)c(C)s1
inactive: dose: 100.0 mg/kg/injection, schedule: Q01DX009 (ip), vehicle: gum acacia 97 % of control | dose: 100.0 mg/kg/injection, schedule: Q04DX003 (ip), vehicle: gum acacia 102 % of control | dose: 200.0 mg/kg/injection, schedule: Q01DX009 (ip), vehicle: gum acacia 90 % of control | dose: 200.0 mg/kg/injection, schedule: Q04DX003 (ip), vehicle: gum acacia 96 % of control | dose: 400.0 mg/kg/injection, schedule: Q01DX009 (ip), vehicle: gum acacia 101 % of control | dose: 400.0 mg/kg/injection, schedule: Q04DX003 (ip), vehicle: gum acacia 101 % of control

O=C(c1ccc2cc(Cl)c3ccccc3c2c1)C(Br)CBr (stereo unspecified)
inactive: dose: 55.0 mg/kg/injection, schedule: Q01DX Z (ip), vehicle: methylcellulose (MC) 88 % of control | dose: 83.0 mg/kg/injection, schedule: Q01DX Z (ip), vehicle: methylcellulose (MC) 93 % of control | dose: 125.0 mg/kg/injection, schedule: Q01DX Z (ip), vehicle: methylcellulose (MC) 93 % of control

NC(=O)c1cc(I)cc(I)c1N
inactive: [10] 95 % of control | dose: 200.0 mg/kg/injection, schedule: Q01DX001 (ip), vehicle: saline with Tween-80 97 % of control | dose: 400.0 mg/kg/injection, schedule: Q01DX001 (ip), vehicle: saline with Tween-80 98 % of control
